Measured values: patent US20260365664A1, “HARRINGTONINE DERIVATIVE, PHARMACEUTICAL COMPOSITION THEREOF, PREPARATION METHOD THEREFOR, AND USE THEREOF” (NANKAI UNIVERSITY, priority 2022, published 2026)

Tests used:
Type in all cases: cell-based
[1] = tested on: human breast cancer cell MCF-7; test: MTT in vitro cell growth inhibition, human breast cancer cell MCF-7 (48 h); settings: MCF7, MCF-7 cells
Protocol: (§1) Human breast cancer cell MCF-7, hepatocellular carcinoma cell HepG2, lung adenocarcinoma cell A549 were purchased from Shanghai Cell Bank of Chinese Academy of Sciences. Human leukemia cells HL-60, human leukemia cells adriamycin-resistant strain HL-60/ADR, and human glioblastoma cells U-87MG were purchased from Shanghai Chuanqiu Biotechnology Co. Human cervical cancer HeLa was purchased from Shanghai Jikai Gene Chemistry Technology Co. Human colon cancer cells HCT-116, human brain microvascular endothelial cells hCMEC/D3 were preserved by Tianjin Suntech Pharmaceutical Technology Co. Human colon cancer cells Sw620 and human colon cancer cells LoVo were provided by Tianjin Medical University Hospital.
(§2) Human breast cancer cell MCF-7, hepatocellular carcinoma cell HepG2, lung adenocarcinoma cell A549, human leukemia cell HL-60, human leukemia cell adriamycin-resistant strain HL-60/ADR, human glioblastoma cell U-87MG, human cervical carcinoma cell HeLa, human colon carcinoma cell HCT-116, human colon carcinoma cell Sw620, human colon carcinoma cell LoVo, Human brain microvascular endothelial cells HCMEC/D3 were cultured using DMEM medium. The medium was supplemented with 10% fetal bovine serum and 1% double antibody (penicillin+streptomycin), and the culture environment was an incubator filled with 5% CO2 at a temperature of 37 °C, when the cells basically grew all over the bottom of the dish (about 80%-90%), passaging culture was performed.
(§3) Preparation of MTT solution: Weigh 50 mg of MTT, dissolve it in 10 mL of phosphate buffer solution (PBS), dispense it, and store it at 4 °C away from light, it will be effective within two weeks.
(§4) Take the series of compounds diluted with medium to form 1 mg/ml master batch, before use, precise aspiration of the appropriate amount of sample master batch diluted with medium to form working solutions with different concentration gradients, such as 100 μg/ml, 10 μg/ml, 1 μg/ml, 0.1 μg/ml, 0.01 μg/ml, 0.001 μg/ml and so on.
(§5) 1. Take log phase cells, digest, centrifuge and resuspend. The cell density was adjusted to 1×10^5 cells/mL by adding culture medium, and 100 μl of prepared cell suspension per well was added and inoculated into 96-well cell culture plates, after which they were placed in a cell culture incubator for incubation.
(§6) 2. After 24 h of culture, the test group was added 2 μl of the series of compounds with concentrations of 100 μg/ml, 10 μg/ml, 1 μg/ml, 0.1 μg/ml, 0.01 μg/ml, 0.001 μg/ml, and 4 replicate wells were set up for each concentration, as well as a positive control group (etoposide) and a blank control group.
(§7) 3. The 96-well plates were incubated separately for 48 h and then 20 μl of MTT solution (concentration of 5 mg/ml) was added to each well and incubation was continued for 4 hours in the incubator.
(§8) 4. Remove the 96-well plate from the incubator, carefully aspirate the medium in the wells with a micropipette, and add 150 μl of dimethyl sulfoxide to each well, shake to dissolve the crystals completely, and then measure the absorbance OD value using an enzyme counter at 492 nm.
(§9) 5. The test was repeated three times consecutively and the cell inhibition rate was calculated according to the following formula: cell inhibition rate (%)=[1−OD value of the test group/OD of the blank control group)]×100%, and the IC50 value of the half inhibitory concentration of the samples for inhibiting cell growth was calculated.

[2] = tested on: hepatocellular carcinoma cell HepG2; test: MTT in vitro cell growth inhibition, hepatocellular carcinoma cell HepG2 (48 h); settings: Homo sapiens, HepG2 cells
Protocol: as §1, §2, §3, §4, §5, §6, §7, §8, §9

[3] = tested on: lung adenocarcinoma cell A549; test: MTT in vitro cell growth inhibition, lung adenocarcinoma cell A549 (48 h); settings: Homo sapiens, A549 cells
Protocol: as §1, §2, §3, §4, §5, §6, §7, §8, §9

[4] = tested on: human leukemia cells HL-60; test: MTT in vitro cell growth inhibition, human leukemia cells HL-60 (48 h); settings: HL-60 cells
Protocol: as §1, §2, §3, §4, §5, §6, §7, §8, §9

[5] = tested on: human cervical cancer HeLa; test: MTT in vitro cell growth inhibition, human cervical cancer HeLa (48 h); settings: HeLa cells
Protocol: as §1, §2
(§10) Preparation of MTT solution: Weigh 50 mg of MTT, dissolve it in 10 mL of phosphate buffer solution (PBS), dispense it, and store it at 4 °C away from light, it will be effective within two weeks. […]
(§11) 4. Remove the 96-well plate from the incubator, carefully aspirate the medium in the wells with a micropipette, and add 150 μl of dimethyl sulfoxide to each well, shake to dissolve the crystals completely, and then measure the absorbance OD value using an enzyme counter at 492 nm. […]

[6] = tested on: human colon cancer cells HCT-116; test: MTT in vitro cell growth inhibition, human colon cancer cells HCT-116 (48 h); settings: HCT116 cells
Protocol: as §1, §2, §3, §4, §5, §6, §7, §8, §9

[7] = tested on: human colon cancer cells Sw620; test: MTT in vitro cell growth inhibition, human colon cancer cells Sw620 (48 h); settings: SW-620
Protocol: as §1, §2, §10, §11

[8] = tested on: human colon cancer cells LoVo; test: MTT in vitro cell growth inhibition, human colon cancer cells LoVo (48 h)
Protocol: as §1, §2, §10, §11

[9] = tested on: human brain microvascular endothelial cells hCMEC/D3; test: MTT in vitro cell growth inhibition, human brain microvascular endothelial cells hCMEC/D3 (48 h)
Protocol: as §1, §2, §3, §4, §5
2. […]
as §11

Row | SMILES | IC50 [1] | IC50 [2] | IC50 [3] | IC50 [4] | further results
1 | COC(=O)C[C@](O)(CCCC(C)(C)O)C(=O)O[C@@H]1C(OC)=C[C@]23CCCN2CCc2cc4c(cc2[C@H]13)OCO4 [HHT, homoharringtonine, reference compound] | 40 nM | 22 nM | 190 nM | 40 nM | IC50 [5]: 34 nM; IC50 [6]: 26 nM; IC50 [7]: 35 nM; IC50 [8]: 335 nM; IC50 [9]: 171 nM
2 | COC1=C[C@]23CCCN2CCc2cc4c(cc2[C@@H]3[C@@H]1OC(=O)C(O)(C/C=N\OC(C)=O)CCC(C)C)OCO4 (stereo partly drawn) [Compound I-3-13] |  |  | 45 nM | 18 nM | IC50 [6]: 16 nM
3 | C=CC(=O)O/N=C/CC(O)(CCC(C)C)C(=O)O[C@@H]1C(OC)=C[C@]23CCCN2CCc2cc4c(cc2[C@H]13)OCO4 (stereo partly drawn) [Compound I-3-22] |  |  | 39 nM |  | IC50 [6]: 48 nM
4 | COC1=C[C@]23CCCN2CCc2cc4c(cc2[C@@H]3[C@@H]1OC(=O)C(O)(C/C=N/OC(=O)NC1CCCC1)CCC(C)C)OCO4 (stereo partly drawn) [Compound I-3-46] |  |  | 53 nM | 42 nM | IC50 [9]: 60 nM
5 | COC(=O)C[C@](O)(CCc1ccc(SC)cc1)C(=O)O[C@@H]1C(OC)=C[C@]23CCCN2CCc2cc4c(cc2[C@H]13)OCO4 [Compound I-2-41] | 60 nM | 10 nM | 150 nM |  | 
6 | COC1=C[C@]23CCCN2CCc2cc4c(cc2[C@@H]3[C@@H]1OC(=O)C(O)(C/C=N/OC(C)=O)CCC=C(C)C)OCO4 (stereo partly drawn) [Compound I-3-15] |  |  | 83 nM |  | 
7 | COC(=O)C[C@](O)(CCc1cccc2ccccc12)C(=O)O[C@@H]1C(OC)=C[C@]23CCCN2CCc2cc4c(cc2[C@H]13)OCO4 [Compound I-2-43] |  | 15 nM |  |  | 
8 | CCCCC(O)(C/C=N\OC(C)=O)C(=O)O[C@@H]1C(OC)=C[C@]23CCCN2CCc2cc4c(cc2[C@H]13)OCO4 (stereo partly drawn) [Compound I-3-14] |  |  | 44 nM |  | IC50 [6]: 69 nM
9 | COC(=O)C[C@](O)(CCc1cccc(NC(C)=O)c1)C(=O)O[C@@H]1C(OC)=C[C@]23CCCN2CCc2cc4c(cc2[C@H]13)OCO4 [Compound I-2-9] | 34 nM | 48 nM |  | 3.3 nM | 
10 | COC(=O)C[C@](O)(CCc1cccc(NC(=O)Nc2ccc(OC)cc2)c1)C(=O)O[C@@H]1C(OC)=C[C@]23CCCN2CCc2cc4c(cc2C13)OCO4 (stereo partly drawn) [Compound I-1-22] |  |  |  | 13.5 nM | 
11 | COC1=C[C@]23CCCN2CCc2cc4c(cc2[C@@H]3[C@@H]1OC(=O)C(O)(C/C=N/OC(=O)[C@H](C)c1ccc2cc(OC)ccc2c1)CCc1ccc2c(c1)CCO2)OCO4 (stereo partly drawn) [Compound I-3-34] |  |  | 283 nM |  | IC50 [6]: 26 nM
12 | COC(=O)C[C@](O)(CCc1cccc(N)c1)C(=O)O[C@@H]1C(OC)=C[C@]23CCCN2CCc2cc4c(cc2[C@H]13)OCO4 [Compound I-2-5] | 11 nM | 40 nM |  | 3.1 nM | 
13 | COC(=O)C[C@](O)(CCc1cccc(NC(=O)Nc2ccc(C)cc2)c1)C(=O)O[C@@H]1C(OC)=C[C@]23CCCN2CCc2cc4c(cc2[C@H]13)OCO4 [Compound I-1-1] | 4.3 nM | 25 nM |  |  | 
14 | COC(=O)C[C@](O)(CCc1ccc(OC)cc1)C(=O)O[C@@H]1C(OC)=C[C@]23CCCN2CCc2cc4c(cc2[C@H]13)OCO4 [Compound I-2-45] | 90 nM | 17 nM | 210 nM |  | 
15 | COC(=O)C[C@@](O)(CCc1cccc([N+](=O)[O-])c1)C(=O)O[C@@H]1C(OC)=C[C@]23CCCN2CCc2cc4c(cc2C13)OCO4 (stereo partly drawn) [Compound I-2-2] | 14 nM | 29 nM |  |  | 
16 | COC1=C[C@]23CCCN2CCc2cc4c(cc2[C@@H]3[C@@H]1OC(=O)C(O)(CCC(C)C)CC(=O)SC)OCO4 (stereo partly drawn) [Compound I-2-52] |  |  |  |  | IC50 [6]: 46 nM
17 | COC1=C[C@]23CCCN2CCc2cc4c(cc2[C@@H]3[C@@H]1OC(=O)C(O)(C/C=N\OC(=O)C(C)C)CCC=C(C)C)OCO4 (stereo partly drawn) [Compound I-3-25] |  |  | 92 nM |  | 
18 | COC(=O)C[C@](O)(CCc1cccc(F)c1F)C(=O)O[C@@H]1C(OC)=C[C@]23CCCN2CCc2cc4c(cc2[C@H]13)OCO4 [Compound I-2-35] | 110 nM | 23 nM | 60 nM |  | 
19 | COC1=C[C@]23CCCN2CCc2cc4c(cc2[C@@H]3[C@@H]1OC(=O)C(O)(C/C=N\OC(=O)C(C)C)CCC(C)C)OCO4 (stereo partly drawn) [Compound I-3-23] |  |  | 21 nM | 34 nM | IC50 [6]: 71 nM
20 | COC(=O)C[C@](O)(CCc1ccc2ccccc2c1)C(=O)O[C@@H]1C(OC)=C[C@]23CCCN2CCc2cc4c(cc2[C@H]13)OCO4 [Compound I-2-44] | 65 nM | 95 nM | 20 nM | 8.7 nM | 
21 | COC(=O)C[C@](O)(CCc1ccccc1C(F)(F)F)C(=O)O[C@@H]1C(OC)=C[C@]23CCCN2CCc2cc4c(cc2[C@H]13)OCO4 [Compound I-2-38] | 220 nM | 75 nM | 290 nM |  | 
22 | COC(=O)C[C@](O)(CCCC(F)(F)F)C(=O)O[C@@H]1C(OC)=C[C@]23CCCN2CCc2cc4c(cc2[C@H]13)OCO4 [Compound I-2-29] |  |  | 61 nM |  | IC50 [5]: 25 nM
23 | COC1=C[C@]23CCCN2CCc2cc4c(cc2[C@@H]3[C@@H]1OC(=O)C(O)(C/C=N/OC(=O)[C@H](C)c1ccc2cc(OC)ccc2c1)CCC(C)C)OCO4 (stereo partly drawn) [Compound I-3-31] |  |  | 21 nM | 20 nM | IC50 [7]: 3.4 nM; IC50 [8]: 45 nM; IC50 [9]: 24 nM
24 | CCCCC(O)(C/C=N\OC(=O)C(C)C)C(=O)O[C@@H]1C(OC)=C[C@]23CCCN2CCc2cc4c(cc2[C@H]13)OCO4 (stereo partly drawn) [Compound I-3-24] |  |  | 36 nM | 67 nM | IC50 [6]: 24 nM; IC50 [9]: 245 nM
25 | COC(=O)C[C@](O)(CCC(F)(F)C(F)(F)F)C(=O)O[C@@H]1C(OC)=C[C@]23CCCN2CCc2cc4c(cc2[C@H]13)OCO4 [Compound I-2-30] |  |  | 21 nM |  | IC50 [5]: 28 nM
26 | COC(=O)C[C@](O)(CCc1cccc(NC(=O)NC2CCCC2)c1)C(=O)O[C@@H]1C(OC)=C[C@]23CCCN2CCc2cc4c(cc2C13)OCO4 (stereo partly drawn) [Compound I-1-2] | 0.5 nM | 14 nM | 70 nM | 7.7 nM | IC50 [7]: 12 nM; IC50 [8]: 57 nM
27 | COC(=O)C[C@](O)(CCc1cccc(NC(=O)NC2CCCCC2)c1)C(=O)O[C@@H]1C(OC)=C[C@]23CCCN2CCc2cc4c(cc2C13)OCO4 (stereo partly drawn) [Compound I-1-9] |  |  |  | 8.9 nM | 
